According to patent publication US20220053762A1, “HERBICIDAL COMPOSITIONS” (Bayer Aktiengesellschaft, priority 2018, published 2022):

System: harmful plant species
Assay: Specific trial examples: binary compositions applied by the post-emergence method, synergistic effect according to Colby (Tables 3.1-3.2)
Format: in vivo
Method: When the observed efficacies already exceed the formal sum total of the values of the tests with individual applications, they also exceed the expected value according to Colby, which is calculated using the formula below and is likewise regarded as an indication of synergism (cf. S. R. Colby; in Weeds 15 (1967) p. 20 to 22):
Seeds or rhizome pieces of mono- and dicotyledonous weeds are placed in sandy loam in pots, covered with soil and grown in a greenhouse under good growth conditions (temperature, air humidity, water supply). Three weeks after sowing, the test plants are treated at the three-leaf stage with the compositions according to the invention. The compositions according to the invention formulated as spray powders or as emulsion concentrates are sprayed onto the green plant parts in various dosages with an application rate of 300 to 800 l/ha of water (equivalent).
The sum total of the effects of the individual applications is reported under E^A; Expected values according to Colby are each reported under E^C.
The rating period is reported in days after application (DAT).

## O=C(Nc1ccc(F)cc1F)c1cccnc1Oc1cccc(C(F)(F)F)c1 [(B2.18) Diflufenican]
28 DAT, g a.i./ha: r8 270, r9 90, r10 30, r11 15, r12 5
  Herbicidal action against Digitaria sanguinalis: 20%
28 DAT, g a.i./ha: r35 270, r36 90, r37 30, r38 15, r39 5, r40 1.67
  Herbicidal action against Setaria faberi: 0%
28 DAT, g a.i./ha: r51 270, r52 15, r53 5, r54 1.67
  Herbicidal action against Setaria viridis: 10%
28 DAT, g a.i./ha: r149 15, r150 5, r151 270, r152 90, r153 30
  Herbicidal action against Alopecurus myosuroides (sensitive biotype): 0%
28 DAT, g a.i./ha: r231 15, r232 5, r233 270
  Herbicidal action against Papaver rhoeas: 30%
28 DAT, g a.i./ha: r294 5, r295 90
  Herbicidal action against Veronica hederifolia: 60%
(Z32) 28 DAT, g a.i./ha: r372 270, r373 90, r374 30, r375 5
  Herbicidal action against Echinochloa crus-galli: 10%
(Z90) 14 DAT, g a.i./ha: r533 16, r534 4, r535 1, r536 90, r537 30
  Herbicidal action against Centaurea cyanus: 50%
(Z90) 28 DAT, g a.i./ha: r586 16, r587 30
  Herbicidal action against Lamium purpureum L.: 10%
(Z90) 28 DAT, g a.i./ha: r594 16, r595 30
  Herbicidal action against Lolium rigidum: 0%
(Z90) 28 DAT, g a.i./ha: r602 4, r603 90
  Herbicidal action against Matricaria inodora: 10%
(Z90) 28 DAT, g a.i./ha: r624 4, r625 270
  Herbicidal action against Viola tricolor: 40%
(Z119) 14 DAT, g a.i./ha: r632 16, r633 4, r634 30, r635 270
  Herbicidal action against Alopecurus myosuroides: 20%
(Z119) 14 DAT, g a.i./ha: r682 16, r683 30
  Herbicidal action against Lolium rigidum: 10%
(Z119) 14 DAT, g a.i./ha: r709 4, r710 270
  Herbicidal action against Phalaris minor: 20%
(Z119) 14 DAT, g a.i./ha: r729 4, r730 270
  Herbicidal action against Poa annua L.: 20%
(Z119) 28 DAT, g a.i./ha: r654 16, r655 30
  Herbicidal action against Centaurea cyanus: 10%
(Z119) 28 DAT, g a.i./ha: r662 1, r663 270
  Herbicidal action against Galium aparine: 20%
(Z119) 28 DAT, g a.i./ha: r690 16, r691 30
  Herbicidal action against Lolium rigidum: 0%
Z61 28 DAT, g a.i./ha: r459 30, r460 15
  Herbicidal action against Abutilon theophrasti: 10%
Z61 28 DAT, g a.i./ha: r479 30, r480 1.7
  Herbicidal action against Brachiaria platyphylla: 10%
Z61 28 DAT, g a.i./ha: r487 270, r488 5
  Herbicidal action against Eleusine indica: 20%

## CP(=O)(O)CCC(N)C(=O)O (centres unmarked) [(B7.4) Glufosinate]
post-emergence, single active compound (A2 series), g a.i./ha: r337 150, r339 5
  Herbicidal action 28 DAT [%] against Eleusine indica: 50%
post-emergence, single active compound (A2 series), g a.i./ha: r347 50, r349 5
  Herbicidal action 28 DAT [%] against Kochia scoparia: 10%
post-emergence, single active compound (A2 series), g a.i./ha: r357 50, r359 5
  Herbicidal action 28 DAT [%] against Polygonum convulvulus: 30%
post-emergence, single active compound (A3 series), g a.i./ha: r384 50, r386 45, r387 15, r388 5
  Herbicidal action 28 DAT [%] against Kochia scoparia: 10%
post-emergence, single active compound (A4 series), g a.i./ha: r479 16, r480 4, r481 1, r482 150
  Herbicidal action in [%] 14 DAT against Galium aparine: 30%
post-emergence, single active compound (A4 series), g a.i./ha: r491 16, r492 50
  Herbicidal action in [%] 28 DAT against Galium aparine: 30%
post-emergence, single active compound (A4 series), g a.i./ha: r501 4, r502 1, r503 450
  Herbicidal action in [%] 14 DAT against Lamium purpureum L.: 80%
post-emergence, single active compound (A4 series), g a.i./ha: r512 4, r513 1, r514 450
  Herbicidal action in [%] 28 DAT against Lamium purpureum L.: 60%
post-emergence, single active compound (A4 series), g a.i./ha: r523 1, r524 450
  Herbicidal action in [%] 28 DAT against Lolium rigidum (resistant bio type): 20%
post-emergence, single active compound (A4 series), g a.i./ha: r533 16, r534 450
  Herbicidal action in [%] 14 DAT against Poa annua L.: 40%
post-emergence, single active compound (A5 series), g a.i./ha: r617 4, r618 450
  Herbicidal action in [%] 28 DAT against Bromus sterilis: 10%
post-emergence, single active compound (A5 series), g a.i./ha: r627 16, r628 1, r629 450, r630 150
  Herbicidal action in [%] 14 DAT against Centaurea cyanus: 70%
post-emergence, single active compound (A5 series), g a.i./ha: r649 1, r650 150
  Herbicidal action in [%] 14 DAT against Galium aparine: 30%
post-emergence, single active compound (A5 series), g a.i./ha: r659 1, r660 450
  Herbicidal action in [%] 14 DAT against Lamium purpureum L.: 80%
post-emergence, single active compound (A5 series), g a.i./ha: r669 1, r670 450
  Herbicidal action in [%] 28 DAT against Lamium purpureum L.: 60%
post-emergence, single active compound, g a.i./ha: r40 50, r42 15, r43 5
  Herbicidal action 28 DAT [%] against Setaria faberi: 10%
post-emergence, single active compound, g a.i./ha: r51 50, r53 15, r54 5, r55 1.67
  Herbicidal action 28 DAT [%] against Setaria viridis: 10%
post-emergence, single active compound, g a.i./ha: r77 450, r79 15, r80 5
  Herbicidal action 28 DAT [%] against Abutilon theophrasti: 90%
post-emergence, single active compound, g a.i./ha: r88 150, r89 50, r90 45, r91 15, r92 5
  Herbicidal action 28 DAT [%] against Euphorbia heterophylla: 15%
post-emergence, single active compound, g a.i./ha: r172 5, r173 1.67, r174 450
  Herbicidal action 28 DAT [%] against Bromus sterilis: 30%
post-emergence, single active compound, g a.i./ha: r183 5, r184 50
  Herbicidal action 28 DAT [%] against Galium aparine: 0%
post-emergence, single active compound, g a.i./ha: r204 45, r205 50
  Herbicidal action 28 DAT [%] against Lamium purpureum: 50%
post-emergence, single active compound, g a.i./ha: r214 15, r215 150, r216 50
  Herbicidal action 28 DAT [%] against Lolium rigidum (sensitive biotype): 0%
post-emergence, single active compound, g a.i./ha: r224 15, r225 5, r226 150, r227 50
  Herbicidal action 28 DAT [%] against Lolium rigidum (resistant biotype): 0%
post-emergence, single active compound, g a.i./ha: r292 5, r293 150
  Herbicidal action 28 DAT [%] against Veronica hederifolia: 70%
post-emergence, single active compound, g a.i./ha: r314 50, r316 15, r317 5, r318 1.7
  Herbicidal action 28 DAT [%] against Brachiaria platyphylla: 30%
post-emergence, single active compound, g a.i./ha: r396 50, r398 5
  Herbicidal action 28 DAT [%] against Pharbitis purpurea: 40%
post-emergence, single active compound, g a.i./ha: r721 16, r722 450
  Herbicidal action in [%] 28 DAT against Poa annua L.: 30%
